# Assay results from article PMC6246607, “Novel AR-12 derivatives, P12-23 and P12-34, inhibit flavivirus replication by blocking host de novo pyrimidine biosynthesis” (Emerging Microbes & Infections, 2018).
# Several values for one entry are separate records, joined by “and”; a condition that tells them apart may be missing. Equal values may be shown once.
# Key:
# [1] = test system: DENV-2-eGFP; experiment: microbe, parasite or virus in culture; format: cell-based, dengue virus
# Method: (§1) Approximately 50% of confluent cells seeded in 96-well plates were infected with viruses in the presence of drugs or DMSO as a solvent control. At 24 h post-infection (hpi), cells were fixed with 4% paraformaldehyde at room temperature (RT) for 20 min, permeated with a 0.5% Triton X-100 buffer for 2 min, and blocked with 3% BSA for 30 min. Nuclei were stained with DAPI (Sigma) at RT for 20 min. Viral NS3 was stained with a mouse anti-NS3 monoclonal antibody (mAb)[47] followed by staining with an Alexa Fluor 488-conjugated goat anti-mouse IgG antibody (ThermoFisher) at RT for 1 h. Nine images from different fields per well were acquired and analyzed using an ImageXpress Micro XLS Widefield High-Content Analysis System (Molecular Devices, Sunnyvale, USA). To quantify viral infection, the fluorescence intensities of viral NS3 or eGFP from the reporter virus were measured using MetaXpress® (Molecular Devices, Sunnyvale, USA) and were calculated with a mock control (infection as 0%) and a DMSO solvent control (infection as 100%).
# [2] = LDH release cytotoxicity assay; format: cell-based, human; details: human, A549 cells
# Method: (§2) Cells were treated with compounds at the indicated concentrations for 24 h. The release of lactate dehydrogenase (LDH) was measured using a Cytotoxicity Detection Kit (Roche, Basel, Switzerland) after removing cell debris. Cells treated with 1% Triton X-100 were used to determine the maximal LDH release.
# [3] = test system: A549 cells; experiment: LDH release cytotoxicity assay; format: cell-based, human; details: 24 h
# Method: as §2
# [4] = test system: JEV-eGFP; experiment: microbe, parasite or virus in culture; format: cell-based, Japanese encephalitis virus
# Method: as §1
# [5] = test system: ZIKV; experiment: High-content image analysis of ZIKV infection (NS3) in A549 cells; format: cell-based, Zika virus; details: ZIKV
# Method: as §1
SMILES,"SI (CC50/IC50) ([1]; DENV-2-eGFP, A549 cells)","IC50 ([1]; Dengue virus, DENV2, A549, 24 h) [nM]","anti-DENV activity with uridine supplement ([1]; uridine 50 µg/ml, P12-23 1 µM, P12-34 1 µM, AR-12 5 µM, A549 cells)",CC50 at 24 h [2] [nM],CC50 ([3]; A549 cells) [nM],noncytotoxic concentrations ([3]; human A549 cells) [µM],"SI (CC50/IC50) ([4]; JEV-eGFP, A549 cells)","IC50 ([4]; Japanese encephalitis virus, A549, 24 h) [nM]",SI (CC50/IC50) ([5]; A549 cells),"IC50 ([5]; Zika virus, MOI 0.5, A549 cells, 24 h) [nM]","effect on DENV replication ([1]; A549 cells, DENV-2-eGFP MOI 5, reversed by exogenous uridine 50 µg/ml)"
NCC(=O)Nc1ccc(-n2nc(C(F)(F)F)cc2-c2ccc3c(ccc4ccccc43)c2)cc1 [AR-12],33 and 33.2 ± 5.9,660 ± 130,abolished,~20000,21400 ± 200,≤ 12.5,42.3 ± 4.1,510 ± 52.4,15.8 ± 2,1370 ± 177,–
"O=C(N[C@@H]1CCCc2c1[nH]c1ccc(Cl)cc21)c1ccccn1 [GSK983, reference compound]",–,–,–,–,–,–,–,–,–,–,reduced DENV replication in a dose-dependent manner
